# Results as given in ChEMBL document CHEMBL1201862, “PubChem BioAssay data set” (2004).
#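 Interpolation was linear, between the two tested concentrations surrounding the appropriate level; five concentrations were tested over 48 hours in 96-well plates. GI50 is the concentration that inhibits growth by half.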 The source made the active and inactive calls. No stated cut-off is given here; in the data, active = GI50 up to about 1.1 µM and inactive = higher.
# Legend:
# Assay in all cases: NCI tumour cell line growth inhibition, 48 h
# SF-539 = system: SF-539
# SNB-19 = system: SNB-19
# OVCAR-5 = system: OVCAR-5
# EKVX = system: EKVX
# CCRF-CEM = system: CCRF-CEM
# OVCAR-8 = system: OVCAR-8
# MOLT-4 = system: MOLT-4
# MCF7 = system: MCF7
# UO-31 = system: UO-31
# HT-29 = system: HT-29
# CAKI-1 = system: CAKI-1
# SR = system: SR
# BT-549 = system: BT-549
# OVCAR-4 = system: OVCAR-4
# M14 = system: M14
# DU-145 = system: DU-145
# MDA-N = system: MDA-N
# SK-MEL-2 = system: SK-MEL-2
# SK-OV-3 = system: SK-OV-3
# HCC 2998 = system: HCC 2998
SMILES,GI50 (SF-539),GI50 (SNB-19),GI50 (OVCAR-5),GI50 (EKVX),GI50 (CCRF-CEM),GI50 (OVCAR-8),GI50 (MOLT-4),GI50 (MCF7),GI50 (UO-31),GI50 (HT-29),GI50 (CAKI-1),GI50 (SR),GI50 (BT-549),GI50 (OVCAR-4),GI50 (M14),GI50 (DU-145),GI50 (MDA-N),GI50 (SK-MEL-2),GI50 (SK-OV-3),GI50 (HCC 2998)
CCC1=C(C=O)c2cc3[nH]c(cc4nc(c5c6[nH]c(cc1n2)c(C)c6C(=O)C5C(=O)OC)C(CCC(=O)OC)C4C)c(C)c3CC (stereo not given),> 100 µM (inactive),> 100 µM (inactive),> 100 µM (inactive),> 100 µM (inactive),> 100 µM (inactive),> 100 µM (inactive),> 100 µM (inactive),> 100 µM (inactive),> 100 µM (inactive),> 100 µM (inactive),> 100 µM (inactive),> 100 µM (inactive),> 100 µM (inactive),> 100 µM (inactive),> 100 µM (inactive),> 100 µM (inactive),> 100 µM (inactive),> 100 µM (inactive),> 100 µM (inactive),> 100 µM (inactive)
NC(=O)N/N=C(/CC1C(=O)Oc2ccccc21)c1ccccc1O (stereo not given),25.6 µM (inactive),60 µM (inactive),> 100 µM (inactive),87.5 µM (inactive),22.4 µM (inactive),28.6 µM (inactive),20.2 µM (inactive),48.1 µM (inactive),41.1 µM (inactive),69 µM (inactive),49 µM (inactive),18.9 µM (inactive),24.2 µM (inactive),41.7 µM (inactive),> 100 µM (inactive),50.1 µM (inactive),45.5 µM (inactive),> 100 µM (inactive),34.1 µM (inactive),35 µM (inactive)
COC(=O)c1ccccc1NC(=O)C(=O)CC(=O)c1ccccc1NC1=CC(=O)C(=O)c2ccccc21,18.6 µM (inactive),20.2 µM (inactive),29.2 µM (inactive),44.8 µM (inactive),3.17 µM (inactive),7.01 µM (inactive),3.98 µM (inactive),8.87 µM (inactive),15.1 µM (inactive),44.5 µM (inactive),23.8 µM (inactive),2.67 µM (inactive),15.2 µM (inactive),7.91 µM (inactive),5.12 µM (inactive),23.2 µM (inactive),1.71 µM (inactive),12.5 µM (inactive),32.5 µM (inactive),25.6 µM (inactive)
COC(=O)C1Cc2cc3c(cc2C1=O)CCCC3 (stereo not given),> 100 µM (inactive),56.5 µM (inactive),72.9 µM (inactive),46.8 µM (inactive),37.2 µM (inactive),46.6 µM (inactive),41.2 µM (inactive),42 µM (inactive),51.9 µM (inactive),61.8 µM (inactive),54.1 µM (inactive),30.3 µM (inactive),22.3 µM (inactive),64.9 µM (inactive),> 100 µM (inactive),45.8 µM (inactive),> 100 µM (inactive),> 100 µM (inactive),27.1 µM (inactive),> 100 µM (inactive)
CCOCC(=O)N[C@H]1CCc2cc(OC)c(OC)c(OC)c2-c2ccc(OC)c(=O)cc21,0.0148 µM (active),0.164 µM (active),0.741 µM (active),> 15.8 µM (inactive),0.0444 µM (active),0.0194 µM (active),0.0231 µM (active),0.0207 µM (active),3.56 µM (inactive),0.0146 µM (active),0.0577 µM (active),< 0.0206 µM (active),< 0.0321 µM (active),3.62 µM (inactive),0.0179 µM (active),0.0213 µM (active),0.0122 µM (active),0.0174 µM (active),0.111 µM (active),0.0141 µM (active)
CC(C)C1CC[C@H](C)C[C@@H]1OC(=O)C(C(=O)O[C@H]1C[C@@H](C)CCC1C(C)C)C(O)[C@@H]1OC(C)(C)O[C@H]1C1COC(C)(C)O1 (stereo not given in full),26.8 µM (inactive),16.3 µM (inactive),17.3 µM (inactive),20.8 µM (inactive),15 µM (inactive),21 µM (inactive),10.7 µM (inactive),8.13 µM (inactive),17.3 µM (inactive),13.4 µM (inactive),16.3 µM (inactive),9.62 µM (inactive),19 µM (inactive),26 µM (inactive),19 µM (inactive),18.8 µM (inactive),18.5 µM (inactive),19.4 µM (inactive),26.8 µM (inactive),13.8 µM (inactive)
CN(C)C(=O)Oc1ccc(-c2cn3cc(NC(=O)c4ccccc4)ccc3n2)cc1,> 100 µM (inactive),50.8 µM (inactive),> 100 µM (inactive),> 100 µM (inactive),99.5 µM (inactive),> 100 µM (inactive),17.2 µM (inactive),31.7 µM (inactive),> 100 µM (inactive),87.3 µM (inactive),> 100 µM (inactive),29.3 µM (inactive),80.4 µM (inactive),55 µM (inactive),> 100 µM (inactive),> 100 µM (inactive),> 100 µM (inactive),> 100 µM (inactive),> 100 µM (inactive),52 µM (inactive)
